Test [1] has as its system platelet rich plasma (PRP). Description: Platelet aggregation test (platelet rich plasma), thrombin-induced. The class given is cell-based. The conditions noted are these: human PRP, thrombin at minimum concentration causing maximum aggregation; test compound concentration not given. Here is the method:
Platelet Aggregation Test (Platelet Rich Plasma)
Using a syringe filled in advance with 3.8% sodium citrate solution (Chitral: Yamanouchi Pharmaceutical Co., Ltd.), its 9-fold volume of venous blood was taken from healthy volunteers. After blood sampling, the blood was centrifuged at room temperature, 2700 G for […] and 15 min to give platelet rich plasma (PRP) and platelet poor plasma (PPP), respectively. PRP was applied to an automated blood cell counter (Sysmex) to adjust the platelet count to 300,000/μL, and fibrin polymerization inhibitory peptide was added thereto to a final concentration of 4 mM. The platelet aggregation rate was measured using an aggregometer (Kowa). To be specific, 200 μL of PRP was placed in a cuvette with a microstirrer, preheated at 37° C. for 2 min, and a test compound solution (20 μL) was added. The mixture was further preheated at 37° C. for 2 min with stirring (1000 rpm), thrombin (20 μL) was added, and changes in the transmittance caused by platelet aggregation were recorded over time. Thrombin was used at a minimum concentration causing maximum aggregation, and the aggregation suppressive rate (%) was calculated from the ratio of the maximum aggregation rate with addition of test compound to the maximum aggregation rate of control group. The test compound was dissolved in dimethyl sulfoxide and diluted with saline before use.

A further test has as its target T1, human PAR-1 (Homo sapiens, UniProt P25116).
T1 construct: expressed in transfected cells; host or cells: CHO-K1 (transformant flag/trn/CHO-K1)
T1 sequence (P25116 22-425): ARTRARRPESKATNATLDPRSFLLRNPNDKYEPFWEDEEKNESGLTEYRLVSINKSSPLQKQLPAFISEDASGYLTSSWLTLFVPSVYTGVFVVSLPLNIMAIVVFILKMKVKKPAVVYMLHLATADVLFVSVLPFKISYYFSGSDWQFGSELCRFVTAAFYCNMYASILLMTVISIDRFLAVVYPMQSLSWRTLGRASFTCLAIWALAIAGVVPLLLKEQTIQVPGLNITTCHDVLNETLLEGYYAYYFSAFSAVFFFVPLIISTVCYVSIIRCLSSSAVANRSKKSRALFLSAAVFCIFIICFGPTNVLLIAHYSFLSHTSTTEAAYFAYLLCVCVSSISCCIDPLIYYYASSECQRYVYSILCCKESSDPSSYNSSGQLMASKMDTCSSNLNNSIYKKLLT
Description: GTPγS binding assay with membrane fraction of human PAR-1-expressing cells. The class given is biochemical. The conditions noted are these: [35S]-GTPγS binding to human PAR-1-expressing cell membrane fraction; agonist peptide SFLLRN-NH2. Here is the method: The preparation method of the membrane fraction used for the GTPγS binding assay is shown below.
Human PAR-1-expressing cells were inoculated to an F500 flask at 1.8×10^5 cells/flask, and the cells were cultured for 2 days. The cells were detached with saline containing 0.02% EDTA. The cells were centrifuged (2000 rpm, 10 min), cell pellets were re-suspended in 12 ml of homogenate buffer (10 mM NaHCO3, 1 mM EDTA, protease inhibitor cocktail, pH 7.4), and homogenized by Polytron™. The residual cells were removed by centrifugation (2000 rpm, 10 min), and the supernatant was ultracentrifuged (Beckman Instruments 70 Ti type rotor, 30000 rpm, 1 hr) to give a membrane fraction of human PAR-1-expressing cells in a sediment, which was preserved at −80° C. and dissolved before use for an assay.
The measurement method of the GTPγS binding activity is shown below.
Then, the reaction mixture was filtered through a GF/C filter, washed 4 times with 300 μL of saline, and the radioactivity of the filter was measured by a TopCount scintillation counter.
The concentration (IC50 value) of the test compound necessary for inhibiting the GTPγS binding activity by 50% was calculated using PRISM3.0 (PraphPad software).

Here are results for three molecules from patent publication US7803822B2, “Triazole derivative and use thereof” (Takeda Pharmaceutical Company Limited, priority 2005, dated 2010).

One may read the IC50 as the concentration at which inhibition is half-maximal.

The structures appear in SMILES notation.

Regarding `CCCc1c(C(=O)NC2CC2)nnn1-c1ccc(NC(C)=O)cc1` [Compound 1, 1-[4-(acetylamino)phenyl]-N-cyclopropyl-5-propyl-1H-1,2,3-triazole-4-carboxamide, reference compound], the “aggregation suppressive rate (%)” value in test [1] came to 66%. The molecule further had an IC50 on human PAR-1 of 1.9 µM. Turning to `CCCc1c(C(=O)NCc2ccc(OC)cc2)nnn1-c1ccc(NC(C)=O)cc1` [Compound 2], in test [1], the “aggregation suppressive rate (%)” value is given as 39%. On human PAR-1, the IC50 turned out to be 2.1 µM. `CCCc1c(C(=O)NCCOc2ccccc2)nnn1-c1ccc(NC(C)=O)cc1` [Compound 3]: the IC50 at human PAR-1 turned out to be 1.9 µM.
